Target: T1, Recombinant human CDK9/cyclin T1 (Homo sapiens, UniProt P50750)
T1 construct: purchased Carna bioscience 04-110
Assay: CDK9 enzyme inhibitory activity (ADP-Glo kinase assay)
Type: biochemical
Conditions: CDK9 enzyme activity, average of two independent repeats; for inhibition at 0.01 µM: read-out: Inhibition rate at different concentrations (%) 10 nM; for inhibition at 0.1 µM: compound 100 nM, read-out: Inhibition rate at different concentrations (%) 100 nM
Method: Experimental method: Recombinant human CDK9/cyclin T1 (Carna bioscience, Cat #04-110) was diluted with dilution buffer (20 mM Tris HCl (pH 7.5), 0.02% Triton X-100, 0.01% BSA, 2 mM DTT, 0.5 mM Na3VO4, 10% Glycerol) to […], the substrates CDK7/9 tide (ThermoFisher, Cat #PV5090) and ATP (sigmaaldrich, Cat #A1852) were diluted with assay buffer (25 mM Tris HCl (pH7.5), 10 mM MgCl2, 0.5 mM EGTA (pH 8), 0.5 mM Na3VO4, 5 mMb-glycerol phosphate, 0.1% Triton X-100, 2.5 mM DTT) to final concentrations of 100 μM and […] respectively, aliquot and set aside. 2 μl of diluted recombinant human CDK9/cyclin T1, 1 μl of test compound, and 2 μl of diluted substrate CDK7/9 tide containing ATP were added to the 384-well plate. […] The positive control was the well in which enzyme and substrate were co-incubated, and the negative control was the well in which dilution buffer and substrate were co-incubated. The inhibition rate was calculated according to the following formula.

T1 sequence (P50750 whole entry): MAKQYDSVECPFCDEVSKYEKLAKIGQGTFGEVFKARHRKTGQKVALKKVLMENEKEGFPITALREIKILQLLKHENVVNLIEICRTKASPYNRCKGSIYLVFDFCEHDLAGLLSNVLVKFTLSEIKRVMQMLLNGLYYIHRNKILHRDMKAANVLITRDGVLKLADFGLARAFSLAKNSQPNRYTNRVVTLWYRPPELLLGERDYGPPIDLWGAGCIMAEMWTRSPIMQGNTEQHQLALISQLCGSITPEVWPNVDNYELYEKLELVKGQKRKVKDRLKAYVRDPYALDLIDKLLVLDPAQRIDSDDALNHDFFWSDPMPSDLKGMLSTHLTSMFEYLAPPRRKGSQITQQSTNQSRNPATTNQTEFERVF
T1 sequence (O60563 whole entry partner): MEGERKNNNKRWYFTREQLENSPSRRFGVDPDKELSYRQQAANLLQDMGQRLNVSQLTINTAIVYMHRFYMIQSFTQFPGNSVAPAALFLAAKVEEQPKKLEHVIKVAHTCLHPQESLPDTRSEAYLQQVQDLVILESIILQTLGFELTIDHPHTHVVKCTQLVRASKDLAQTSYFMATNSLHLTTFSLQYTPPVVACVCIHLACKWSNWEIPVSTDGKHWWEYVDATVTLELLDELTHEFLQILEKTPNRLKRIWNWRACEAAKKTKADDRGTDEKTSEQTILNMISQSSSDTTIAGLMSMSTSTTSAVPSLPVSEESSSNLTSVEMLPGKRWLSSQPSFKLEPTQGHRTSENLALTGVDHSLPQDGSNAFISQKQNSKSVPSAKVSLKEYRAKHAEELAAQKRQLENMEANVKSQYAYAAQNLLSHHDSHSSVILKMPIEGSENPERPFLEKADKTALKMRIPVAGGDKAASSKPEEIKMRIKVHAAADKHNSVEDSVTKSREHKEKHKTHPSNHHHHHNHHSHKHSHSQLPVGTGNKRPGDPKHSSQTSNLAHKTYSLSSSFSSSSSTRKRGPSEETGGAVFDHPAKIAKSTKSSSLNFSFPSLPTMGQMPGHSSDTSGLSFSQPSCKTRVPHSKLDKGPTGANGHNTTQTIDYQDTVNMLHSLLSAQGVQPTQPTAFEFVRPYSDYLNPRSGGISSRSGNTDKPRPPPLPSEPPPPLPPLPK

SMILES | inhibition at 0.01 µM (compound 10 nM) | inhibition at 0.1 µM | Inhibition rate at different concentrations (%) 10 nM (compound 10 nM, 0.01 µM)
CC(=O)N[C@H]1CC[C@H](NC(=O)Nc2cc(-c3cnn4c3CC(C)(C)C4)c(Cl)cn2)C1 (stereo in doubt) [Example 74, N-((1S,3S)-3-(3-(5-chloro-4-(5,5-dimethyl-5,6-dihydro-4H-pyrrolo[1,2-b]pyrazol-3-yl)pyridin-2-yl)ureido)cyclopentyl)acetamide] | 63% | 92% | 
CC1(C)Cc2c(-c3cc(NC(=O)NC4CCC(NCCO)CC4)ncc3Cl)cnn2C1 (centres unmarked) [Example 62, 1-(5-chloro-4-(5,5-dimethyl-5,6-dihydro-4H-pyrrolo[1,2-b]pyrazol-3-yl)pyridin-2-yl)-3-((1r,4r)-4-((2-hydroxyethyl)amino)cyclohexyl)urea] | 54% | 90.9% | 
COCC(C)NC1CCC(NC(=O)Nc2cc(-c3ccc(F)cc3OC)c(Cl)cn2)CC1 (centres unmarked) [Example 21, 1-(5-chloro-4-(4-fluoro-2-methoxyphenyl)pyridin-2-yl)-3-((1r,4r)-4-((1-methoxypropan-2-yl)amino)cyclohexyl)urea] | 45.2% | 91% | 
COCCNC1CCCC(NC(=O)Nc2cc(-c3cnn4c3CC(C)(C)C4)c(Cl)cn2)C1 (centres unmarked) [Example 80, 1-(5-chloro-4-(5,5-dimethyl-5,6-dihydro-4H-pyrrolo[1,2-b]pyrazol-3-yl)pyridin-2-yl)-3-(3-((2-methoxyethyl)amino)cyclohexyl)urea] | 48% | 56% | 
COCCNC1CCC(NC(=O)Nc2cc(-c3cnn4c3CC(C)(C)C4)ccn2)CC1 (centres unmarked) [Example 17, 1-(4-(5,5-dimethyl-5,6-dihydro-4H-pyrrolo[1,2-b]pyrazol-3-yl)pyridin-2-yl)-3-((1r,4r)-4-((2-methoxyethyl)amino)cyclohexyl)urea] | 68.2% | 90.2% | 
CN(C)CC(=O)NC1CCC(NC(=O)Nc2cc(-c3cnn4c3CC(C)(C)C4)c(Cl)cn2)CC1 (centres unmarked) [Example 48, N-((1r,4r)-4-(3-(5-chloro-4-(5,5-dimethyl-5,6-dihydro-4H-pyrrolo [1,2-b]pyrazol-3-yl)pyridin-2-yl)ureido)cyclohexyl)-2-(dimethylamino)acetamide] | 54% | 74% | 
COc1cc(F)ccc1-c1cc(NC(=O)NC2CCC(NC3CCOC3)CC2)ncc1Cl (centres unmarked) [Example 25, 1-(5-chloro-4-(4-fluoro-2-methoxyphenyl)pyridin-2-yl)-3-((1r,4r)-4-((tetrahydrofuran-3-yl)amino)cyclohexyl)urea] | 28.7% | 61.2% | 
NC1CCC(NC(=O)Nc2cc(-c3ccc(F)cc3OC(F)(F)F)ccn2)CC1 (centres unmarked) [Example 12, 1-((1r,4r)-4-aminocyclohexyl)-3-(4-(4-fluoro-2-trifluoromethoxyphenyl)pyridin-2-yl) urea] | 19.2% | 69.1% | 
COc1cc(F)ccc1-c1ccnc(NC(=O)NC2CC(N)C2)c1 (centres unmarked) [Example 35, 1-((1r,3r)-3-aminocyclobutyl)-3-(4-(4-fluoro-2-methoxyphenyl)pyridin-2-yl)urea] | 30% | 62.7% | 
CC(=O)NC1CCC(NC(=O)Nc2cc(-c3cnn4c3CC(C)(C)C4)ccn2)CC1 (centres unmarked) [Example 16, 1-((1r,4r)-4-(3-(4-(5,5-dimethyl-5,6-dihydro-4H-pyrrolo[1,2-b]pyrazol-3-yl)pyridin-2-yl)ureido)cyclohexyl)acetamide] | 72% | 95.7% | 
CC(=O)NC1CCC(NC(=O)Nc2cc(-c3cnn4c3CC(C)(C)C4)c(C3CC3)cn2)CC1 (centres unmarked) [Example 53, N-((1r,4r)-4-(3-(4-(5,5-dimethyl-5,6-dihydro-4H-pyrrolo[1,2-b]pyrazol-3-yl)-5-cyclopropylpyridin-2-yl)ureido)cyclohexyl)acetamide] | 40.3% | 59.8% | 
CNC1CCC(NC(=O)Nc2cc(-c3cnn4c3CC(C)(C)C4)c(Cl)cn2)CC1 (centres unmarked) [Example 88, 1-(5-chloro-4-(5,5-dimethyl-5,6-dihydro-4H-pyrrolo[1,2-b]pyrazol-3-yl)pyridin-2-yl)-3-((1r,4r)-4-(methylamino)cyclohexyl)urea] | 55.7% | 94.2% | 
COc1cc(F)ccc1-c1cc(NC(=O)NC2CCC(NC(C)=O)CC2)ncc1F (centres unmarked) [Example 30, N-((1r,4r)-4-(3-(5-fluoro-4-(4-fluoro-2-methoxyphenyl)pyridin-2-yl)ureido)cyclohexyl)acetamide] | 23.1% | 55.3% | 
CC1(C)Cc2c(-c3cc(NC(=O)NCCCNC(=O)OC(C)(C)C)ncc3Cl)cnn2C1 [Example 71, tert-butyl (3-(3-(5-chloro-4-(5,5-dimethyl-5,6-dihydro-4H-pyrrolo[1,2-b]pyrazol-3-)pyridin-2-yl)ureido)propyl)carbamate] | 34% | 64% | 
CC1(C)Cc2c(-c3cc(NC(=O)NC4CCC(N)CC4)ncc3Cl)cnn2C1 (centres unmarked) [Example 44, 1-((1r,4r)-4-aminocyclohexyl)-3-(5-chloro-4-(5,5-dimethyl-5,6-dihydro-4H-pyrrole[1,2-b]pyrazole-3-yl)pyridin-2-yl)urea] |  | 96% | 83.0%
COc1cc(F)ccc1-c1cc(NC(=O)NC2CCC(NC3CC3)CC2)ncc1Cl (centres unmarked) [Example 24, 1-(5-chloro-4-(4-fluoro-2-methoxyphenyl)pyridin-2-yl)-3-((1r,4r)-4-(cyclopropylamino)cyclohexyl)urea] | 37.8% | 73.1% | 
COCCNCCCNC(=O)Nc1cc(-c2ccc(F)cc2OC)ccn1 [Example 34, 1-(4-(4-fluoro-2-methoxyphenyl)pyridin-2-yl)-3-(3-((2-methoxyethyl)amino)propyl)urea] | 7% | 54% | 
NC1CCC(NC(=O)Nc2cc(-c3ccc(F)c4ccoc34)ccn2)CC1 (centres unmarked) [Example 8, 1-((1r, 4r)-4-aminocyclohexyl)-3-(4-(4-fluoro-benzofuran-7-yl)pyridin-2-yl) urea] | 23.1% | 61.3% | 
COc1cc(F)ccc1-c1cc(NC(=O)NC2CCC(NCCC(F)(F)F)CC2)ncc1Cl (centres unmarked) [Example 26, 1-(5-chloro-4-(4-fluoro-2-methoxyphenyl)pyridin-2-yl)-3-((1r,4r)-4-((3,3,3-trifluoropropyl)amino)cyclohexyl)urea] | 39.3% | 82.5% | 
COc1cc(F)ccc1-c1ccnc(NC(=S)NC2CCC(N)CC2)c1 (centres unmarked) [Example 38, 1-((1r,4r)-4-aminocyclohexyl)-3-(4-(4-fluoro-2-methoxyphenyl)pyridin-2-yl)thiourea] | 51% | 27% | 
COCCNC1CCC(NC(=O)Nc2cc(-c3cnn(C)c3)ccn2)CC1 (centres unmarked) [Example 14, 1-((1r,4r)-4-((2-methoxyethyl)amino)cyclohexyl)-3-(4-(1-methyl-1H-pyrazol-4-yl)pyridine-2-yl) urea] | -7.6% | 72.3% | 
CC(=O)NC1CCC(NC(=O)Nc2cc(-c3cnn4c3CC(C)(C)C4)c(C)cn2)CC1 (centres unmarked) [Example 52, N-((1r,4r)-4-(3-(4-(5,5-dimethyl-5,6-dihydro-4H-pyrrolo[1,2-b]pyrazol-3-yl-S-methylpyridin-2-yl)ureido)cyclohexyl)acetamide] | 39.7% | 78.5% | 
Cn1cc(-c2ccnc(NC(=O)NC3CCC(N)CC3)c2)cn1 (centres unmarked) [Example 13, 1-((1r,4r)-4-aminocyclohexyl)-3-(4-(1-methyl-1H-pyrazol-4-yl)pyridin-2-yl) urea] | -17.5% | 72.3% | 
CC1(C)Cc2c(-c3cc(NC(=O)NC4CCNCC4)ncc3Cl)cnn2C1 [Example 68, 1-(5-chloro-4-(5,5-dimethyl-5,6-dihydro-4H-pyrrolo[1,2-b]pyrazol-3-yl)pyridin-2-yl)-3-(piperidin-4-yl)urea] | 44% | 89% | 
CC1(C)Cc2c(-c3cc(NC(=O)NC4CCC(NCCF)CC4)ncc3Cl)cnn2C1 (centres unmarked) [Example 61, 1-(5-chloro-4-(5,5-dimethyl-5,6-dihydro-4H-pyrrolo[1,2-b]pyrazol-3-yl)pyridin-2-yl)-3-((1r,4r)-4-((2-fluoroethyl)amino)cyclohexyl)urea] | 58.3% | 85.1% | 
CC(=O)NC1CCC(NC(=O)Nc2cc(-c3cnc(C)n3C(C)C)c(Cl)cn2)CC1 (centres unmarked) [Example 85, N-((1r,4r)-4-(3-(5-chloro-4-(1-isopropyl-2-methyl-1H-imidazol-5-yl)pyridin-2-yl)ureido)cyclohexyl)acetamide] | 28.9% | 72% | 
CC(=O)NC1CCC(NC(=O)Nc2cc(-c3cnn4c3CCC4)c(Cl)cn2)CC1 (centres unmarked) [Example 84, N-((1r,4r)-4-(3-(5-chloro-4-(5,6-dihydro-4H-pyrrolo[1,2-b]pyrazol-3-yl)pyridin-2-yl)ureido)cyclohexyl)acetamide] | 39.5% | 66.3% | 
NC1CCC(NC(=O)Nc2cc(-c3ccc(F)cc3Cl)ccn2)CC1 (centres unmarked) [Example 10, 1-((1r,4r)-4-aminocyclohexyl)-3-(4-(2-chloro-4-fluorophenyl)pyridin-2-yl) urea] | -12.6% | 94.6% | 
